Measured values: US20240384350A1, “METHODS OF TREATING CANCER WITH KINASE INHIBITORS” (BOARD OF REGENTS, THE UNIVERSITY OF TEXAS SYSTEM, priority 2021, published 2024)

Tests used:
Experiment in all cases: Ba/F3 drug screening, Cell Titer Glo, IC50 Mut/WT
Type in all cases: cell-based
[1] = target: T1, EGFR L858R T790M L718V (Homo sapiens, UniProt P00533, L718V/L858R/T790M); conditions: T790M-like-3R, 72 hours
T1 construct: expressed in transfected cells; host or cells: Ba/F3
Experimental: (§1) Data represent the ratio of the IC50 value for a given TKI for cells with a T790M-like-3R EGFR mutation to the IC50 value for cells with wildtype EGFR.
(§2) Ba/F3 cell generation, drug screening, and IC50 approximations. Ba/F3 cells were obtained as a gift from Dr. Gordon Mills (MD Anderson Cancer Center), and maintained in RPMI (Sigma) containing 10% FBS, 1% penicillin/streptomycin, and 10 ng/ml recombinant mIL-3 (R&D Biosystems). To establish stable Ba/F3 cell lines, Ba/F3 cells were transduced with retroviruses containing mutant EGFR plasmids for 12-24 hours.
(§3) After 48-72 hours of transduction, 2 μg/ml puromycin (Invitrogen) was added to Ba/F3 cell lines in complete RPMI. To select for EGFR positive cell lines, cells were stained with PE-EGFR (Biolegend) and sorted by FACS. After sorting, EGFR positive cells were maintained in RPMI containing 10% FBS, 1% penicillin/streptomycin, and 1 ng/ml EGF to support cell viability. […] Shortly, cells were plated in 384-well plates (Greiner Bio-One) at 2000-3000 cells per well in technical triplicate. Seven different concentrations of TKIs or DMSO vehicle were added to reach a final volume of 40 μL per well. After 72 hours, 11 μL of Cell Titer Glo (Promega) was added to each well. Plates were incubated for a minimum of 10 minutes, and bioluminescence was determined using a FLUOstar OPTIMA plate reader (BMG LABTECH). Raw bioluminescence values were normalized to DMSO control treated cells, and values were plotted in GraphPad Prism. […] Drug screens were performed in technical triplicate on each plate and either duplicate or triplicate biological replicates. […] Statistical differences between groups were determined by ANOVA as described in the figure legends.

[2] = target: T2, EGFR L858R T790M V843I (Homo sapiens, UniProt P00533, L858R/T790M/V843I); conditions: T790M-like-3S, 72 hours
T2 construct: expressed in transfected cells; host or cells: Ba/F3

[3] = test system: EGFR I740dupIPVAK; conditions: Ba/F3 cells, EGFR I740dupIPVAK (PACC), Mut/WT
Experimental: (§4) Data represent the ratio of the IC50 value for a given TKI for cells with a PACC EGFR mutation to the IC50 value for cells with wildtype EGFR.
as §2
(§5) After 48-72 hours of transduction, 2 μg/ml puromycin (Invitrogen) was added to Ba/F3 cell lines in complete RPMI. To select for EGFR positive cell lines, cells were stained with PE-EGFR (Biolegend) and sorted by FACS. After sorting, EGFR positive cells were maintained in RPMI containing 10% FBS, 1% penicillin/streptomycin, and 1 ng/ml EGF to support cell viability. Drug screening was performed as previously described^41,42. Shortly, cells were plated in 384-well plates (Greiner Bio-One) at 2000-3000 cells per well in technical triplicate. Seven different concentrations of TKIs or DMSO vehicle were added to reach a final volume of 40 μL per well. After 72 hours, 11 μL of Cell Titer Glo (Promega) was added to each well. Plates were incubated for a minimum of 10 minutes, and bioluminescence was determined using a FLUOstar OPTIMA plate reader (BMG LABTECH). Raw bioluminescence values were normalized to DMSO control treated cells, and values were plotted in GraphPad Prism. […] Drug screens were performed in technical triplicate on each plate and either duplicate or triplicate biological replicates.

[4] = target: T3, EGFR L861Q (Homo sapiens, UniProt P00533, L861Q); conditions: Classical-Like, 72 hours
T3 construct: expressed in transfected cells; host or cells: Ba/F3 cells, retroviral pBabe-Puro vector

[5] = target: T4, EGFR S768dupSVD V769M (Homo sapiens, UniProt P00533, INS768MDS/V769M); conditions: Ex20, 72 hours
T4 construct: expressed in transfected cells; host or cells: Ba/F3 cells, retroviral pBabe-Puro vector (vector made by GeneScript from EGFR S768dupSVD, c.2305G > A)
Experimental: Data represent the ratio of the IC50 value for a given TKI for cells with an ex20ins EGFR mutation to the IC50 value for cells with wildtype EGFR.
as §2
After 48-72 hours of transduction, 2 μg/ml puromycin (Invitrogen) was added to Ba/F3 cell lines in complete RPMI. To select for EGFR positive cell lines, cells were stained with PE-EGFR (Biolegend) and sorted by FACS. After sorting, EGFR positive cells were maintained in RPMI containing 10% FBS, 1% penicillin/streptomycin, and 1 ng/ml EGF to support cell viability. Drug screening was performed as previously described^41,42. Shortly, cells were plated in 384-well plates (Greiner Bio-One) at 2000-3000 cells per well in technical triplicate. Seven different concentrations of TKIs or DMSO vehicle were added to reach a final volume of 40 μL per well. After 72 hours, 11 μL of Cell Titer Glo (Promega) was added to each well. Plates were incubated for a minimum of 10 minutes, and bioluminescence was determined using a FLUOstar OPTIMA plate reader (BMG LABTECH). Raw bioluminescence values were normalized to DMSO control treated cells, and values were plotted in GraphPad Prism. […] Drug screens were performed in technical triplicate on each plate and either duplicate or triplicate biological replicates. […] Statistical differences between groups were determined by ANOVA as described in the figure legends.

[6] = target: T5, EGFR L861R (Homo sapiens, UniProt P00533, L861R); conditions: Classical-Like, 72 hours
T5 construct: expressed in transfected cells; host or cells: Ba/F3 cells, retroviral pBabe-Puro vector (vector made by GeneScript from EGFR WT)
Experimental: (§6) Data represent the ratio of the IC50 value for a given TKI for cells with a classical-like EGFR mutation to the IC50 value for cells with wildtype EGFR.
as §2
(§7) After 48-72 hours of transduction, 2 μg/ml puromycin (Invitrogen) was added to Ba/F3 cell lines in complete RPMI. To select for EGFR positive cell lines, cells were stained with PE-EGFR (Biolegend) and sorted by FACS. After sorting, EGFR positive cells were maintained in RPMI containing 10% FBS, 1% penicillin/streptomycin, and 1 ng/ml EGF to support cell viability. […] Shortly, cells were plated in 384-well plates (Greiner Bio-One) at 2000-3000 cells per well in technical triplicate. Seven different concentrations of TKIs or DMSO vehicle were added to reach a final volume of 40 μL per well. After 72 hours, 11 μL of Cell Titer Glo (Promega) was added to each well. Plates were incubated for a minimum of 10 minutes, and bioluminescence was determined using a FLUOstar OPTIMA plate reader (BMG LABTECH). Raw bioluminescence values were normalized to DMSO control treated cells, and values were plotted in GraphPad Prism. […] Drug screens were performed in technical triplicate on each plate and either duplicate or triplicate biological replicates.

[7] = target: T6, EGFR R776C (Homo sapiens, UniProt P00533, R776C); conditions: Ba/F3 cells, EGFR R776C (PACC), Mut/WT
T6 construct: host or cells: Ba/F3
Experimental: as §4, §2, §5

[8] = target: T7, EGFR L718Q (Homo sapiens, UniProt P00533, L718Q); conditions: Ba/F3 cells, EGFR L718Q (PACC), Mut/WT
T7 construct: expressed in transfected cells; host or cells: Ba/F3

[9] = target: T8, EGFR L718Q T790M (Homo sapiens, UniProt P00533, L718Q/T790M); conditions: T790M-like-3R, 72 hours
T8 construct: expressed in transfected cells; host or cells: Ba/F3
Experimental: as §1, §2, §3

[10] = target: T9, EGFR R776H (Homo sapiens, UniProt P00533, R776H); conditions: Ba/F3 cells, EGFR R776H (PACC), Mut/WT
T9 construct: host or cells: Ba/F3
Experimental: as §4, §2, §5

[11] = target: T10, EGFR G724S T790M (Homo sapiens, UniProt P00533, G724S/T790M); conditions: T790M-like-3R, 72 hours
T10 construct: expressed in transfected cells; host or cells: Ba/F3
Experimental: as §1, §2, §3

[12] = target: T11, EGFR Ex19del/C797S (Homo sapiens, UniProt P00533, C797S/DEL746-750); conditions: Ba/F3 cells, EGFR Ex19del/C797S (PACC), Mut/WT
T11 construct: expressed in transfected cells; host or cells: Ba/F3
Experimental: as §4, §2, §5

[13] = target: T12, EGFR L747P (Homo sapiens, UniProt P00533, L747P); conditions: Ba/F3 cells, EGFR L747P (PACC), Mut/WT
T12 construct: expressed in transfected cells; host or cells: Ba/F3

[14] = target: T13, EGFR G724S (Homo sapiens, UniProt P00533, G724S); conditions: Ba/F3 cells, EGFR G724S (PACC), Mut/WT
T13 construct: expressed in transfected cells; host or cells: Ba/F3
Experimental: as §4, §2, §5

[15] = target: T14, EGFR S768I (Homo sapiens, UniProt P00533, S768I); conditions: Ba/F3 cells, EGFR S768I (PACC), Mut/WT
T14 construct: expressed in transfected cells; host or cells: Ba/F3

[16] = target: T15, EGFR L833V (Homo sapiens, UniProt P00533, L833V); conditions: Classical-Like, 72 hours
T15 construct: expressed in transfected cells; host or cells: Ba/F3 cells, retroviral pBabe-Puro vector
Experimental: as §6, §2, §7

[17] = target: T16, EGFR K754E (Homo sapiens, UniProt P00533, K754E); conditions: Classical-Like, 72 hours
T16 construct: expressed in transfected cells; host or cells: Ba/F3 cells, retroviral pBabe-Puro vector

[18] = target: T17, EGFR V769L (Homo sapiens, UniProt P00533, V769L); conditions: Ba/F3 cells, EGFR V769L (PACC), Mut/WT
T17 construct: expressed in transfected cells; host or cells: Ba/F3

[19] = target: T18, EGFR Ex19del/L792H (Homo sapiens, UniProt P00533, DEL746-750/L792H); conditions: Ba/F3 cells, EGFR Ex19del/L792H (PACC), Mut/WT
T18 construct: expressed in transfected cells; host or cells: Ba/F3

[20] = target: T19, EGFR L858R/T790M/C797S (Homo sapiens, UniProt P00533, C797S/L858R/T790M); conditions: T790M-like-3R, 72 hours
T19 construct: expressed in transfected cells; host or cells: Ba/F3
Experimental: as §1, §2, §3

[21] = target: T20, EGFR S768I/T790M (Homo sapiens, UniProt P00533, S768I/T790M); conditions: T790M-like-3S, 72 hours
T20 construct: expressed in transfected cells; host or cells: Ba/F3

[22] = target: T21, EGFR S768I/V769L (Homo sapiens, UniProt P00533, S768I/V769L); conditions: Ba/F3 cells, EGFR S768I/V769L (PACC), Mut/WT
T21 construct: host or cells: Ba/F3
Experimental: as §4, §2, §5

[23] = target: T22, EGFR G719A/R776C (Homo sapiens, UniProt P00533, G719A/R776C); conditions: Ba/F3 cells, EGFR G719A/R776C (PACC), Mut/WT
T22 construct: expressed in transfected cells; host or cells: Ba/F3
Experimental: as §4, §2, §5

[24] = target: T23, EGFR E709K L858R (Homo sapiens, UniProt P00533, E709K/L858R); conditions: Classical-Like, 72 hours
T23 construct: expressed in transfected cells; host or cells: Ba/F3 cells, retroviral pBabe-Puro vector
Experimental: as §6, §2, §7

[25] = target: T24, EGFR L858R G724S (Homo sapiens, UniProt P00533, G724S/L858R); conditions: Ba/F3 cells, EGFR L858R G724S (PACC), Mut/WT
T24 construct: expressed in transfected cells; host or cells: Ba/F3 (retroviral transduction, pBabe-Puro based vectors)
Experimental: as §4, §2, §5

[26] = target: T25, EGFR Ex19del L718V (Homo sapiens, UniProt P00533, DEL746-750/L718V); conditions: Ba/F3 cells, EGFR Ex19del L718V (PACC), Mut/WT
T25 construct: expressed in transfected cells; host or cells: Ba/F3

ratio of IC50 for cells with mutant EGFR to IC50 for cells with wildtype EGFR (Mut/WT) [1]: 0.5404
ratio of IC50 for cells with mutant EGFR to IC50 for cells with wildtype EGFR (Mut/WT) [2]: 0.06612
ratio of the IC50 value for cells with a PACC EGFR mutation to the IC50 value for cells with wildtype EGFR [3]: 0.2883
ratio of IC50 for cells with mutant EGFR to IC50 for cells with wildtype EGFR (Mut/WT) [4]: 0.05622
ratio of IC50 for cells with mutant EGFR to IC50 for cells with wildtype EGFR (Mut/WT) [5]: 2.831
ratio of IC50 for cells with mutant EGFR to IC50 for cells with wildtype EGFR (Mut/WT) [6]: 0.05091
ratio of the IC50 value for cells with a PACC EGFR mutation to the IC50 value for cells with wildtype EGFR [7]: 1.504
ratio of the IC50 value for cells with a PACC EGFR mutation to the IC50 value for cells with wildtype EGFR [8]: 5.442
ratio of IC50 for cells with mutant EGFR to IC50 for cells with wildtype EGFR (Mut/WT) [9]: 3.513
ratio of the IC50 value for cells with a PACC EGFR mutation to the IC50 value for cells with wildtype EGFR [10]: 0.6077
ratio of IC50 for cells with mutant EGFR to IC50 for cells with wildtype EGFR (Mut/WT) [11]: 26.17
ratio of the IC50 value for cells with a PACC EGFR mutation to the IC50 value for cells with wildtype EGFR [12]: 11.82
ratio of the IC50 value for cells with a PACC EGFR mutation to the IC50 value for cells with wildtype EGFR [13]: 2.92
ratio of the IC50 value for cells with a PACC EGFR mutation to the IC50 value for cells with wildtype EGFR [14]: 26.17
ratio of the IC50 value for cells with a PACC EGFR mutation to the IC50 value for cells with wildtype EGFR [15]: 1.26
ratio of IC50 for cells with mutant EGFR to IC50 for cells with wildtype EGFR (Mut/WT) [16]: 0.006132
ratio of IC50 for cells with mutant EGFR to IC50 for cells with wildtype EGFR (Mut/WT) [17]: 0.1385
ratio of the IC50 value for cells with a PACC EGFR mutation to the IC50 value for cells with wildtype EGFR [18]: 1.618
ratio of the IC50 value for cells with a PACC EGFR mutation to the IC50 value for cells with wildtype EGFR [19]: 0.001792
ratio of IC50 for cells with mutant EGFR to IC50 for cells with wildtype EGFR (Mut/WT) [20]: 23.29
ratio of IC50 for cells with mutant EGFR to IC50 for cells with wildtype EGFR (Mut/WT) [21]: 0.5236
ratio of the IC50 value for cells with a PACC EGFR mutation to the IC50 value for cells with wildtype EGFR [22]: 0.666
ratio of the IC50 value for cells with a PACC EGFR mutation to the IC50 value for cells with wildtype EGFR [23]: 0.5224
ratio of IC50 for cells with mutant EGFR to IC50 for cells with wildtype EGFR (Mut/WT) [24]: 0.0006261
ratio of the IC50 value for cells with a PACC EGFR mutation to the IC50 value for cells with wildtype EGFR [25]: 0.0004647
ratio of the IC50 value for cells with a PACC EGFR mutation to the IC50 value for cells with wildtype EGFR [26]: 0.04944
SMILES: C=CC(=O)Nc1cc(Nc2nccc(-n3cc(CN(C)C)c(-c4ccccc4)n3)n2)c(OC)cc1N1CCOCC1 [Lazertinib]
